Consider 27 molecules from US8637525B2, “Compounds for the reduction of beta-amyloid production” (Bristol-Myers Squibb Company, priority 2009, dated 2014).

One experiment relates to Aβ1-42 production. Kind of experiment: Cellular assay for inhibition of Aβ1-42 production (H4 APP751 SWE clone 8.20). The format is cell-based. Conditions: 19 h, H4 APP751 SWE clone 8.20 cells, 19 h incubation; class symbols; read-out: Activity Rating (Aβ42 cellular IC50). Put shortly:
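Cells incubate with compound for 19 h (37 °C, 5% CO2), the plate is briefly spun, and antibody mix is added straight to the wells: Wallac-conjugated 565 against the Aβ42 C-terminal neoepitope and APC-conjugated 26D6 against the Aβ N-terminus. After overnight sealing at 4 °C, signal is counted and IC50 fitted.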
For the molecule `CNc1nc(Nc2ccc(-n3cnc(Cl)c3)c(OC)c2)nc2c1CCC2c1cc(F)cc(F)c1` (racemic) [Example 102, N^2-(4-(4-Chloro-1H-imidazol-1-yl)-3-methoxyphenyl)-7-(3,5-difluorophenyl)-N^4-methyl-6,7-dihydro-5H-cyclopenta[d]pyrimidine-2,4-diamine], the IC50 (in general, the midpoint of a concentration-inhibition curve) fell in the range of 1.5 to 9.9 nM.

Turning to `COc1cc(Nc2nc3c(c(N4CC5(C4)OCCO5)n2)CCC3c2ccccc2)ccc1-n1cnc(Cl)c1` (stereo not drawn) [Example 184, N-(4-(4-chloro-1H-imidazol-1-yl)-3-methoxyphenyl)-7-phenyl-4-(5,8-dioxa-2-azaspiro[3.4]octan-2-yl)-6,7-dihydro-5H-cyclopenta[d]pyrimidin-2-amine], the IC50 fell in the range of 10 to 100 nM.

For the molecule `CCN(C)c1nc(Nc2ccc(-n3cnc(Cl)c3)c(OC)c2)nc2c1COCC2c1ccccc1` (racemic) [Example 52, N^2-(4-(4-Chloro-1H-imidazol-1-yl)-3-methoxyphenyl)-N^4-ethyl-N^4-methyl-8-phenyl-7,8-dihydro-5H-pyrano[4,3-d]pyrimidine-2,4-diamine], the IC50 lay within 10 to 100 nM.

Turning to `COc1cc(Nc2nc3c(c(N(C)C)n2)C[C@H](O)[C@H]3c2ccccc2)ccc1-n1cnc(Cl)c1` [Example 180, (6S,7S)-2-(4-(4-chloro-1H-imidazol-1-yl)-3-methoxyphenylamino)-4-(dimethylamino)-7-phenyl-6,7-dihydro-5H-cyclopenta[d]pyrimidin-6-ol], the half-maximal inhibitory concentration (IC50) lay within 10 to 100 nM.

With `COc1cc(Nc2nc3c(c(N4CCC(N(C)C)C4)n2)CCC3c2ccc(F)cc2)ccc1-n1cnc(Cl)c1` (stereo not drawn) [Example 29, N-(4-(4-chloro-1H-imidazol-1-yl)-3-methoxyphenyl)-4-(3-(dimethylamino)pyrrolidin-1-yl)-7-(4-fluorophenyl)-6,7-dihydro-5H-cyclopenta[d]pyrimidin-2-amine], the IC50 is 10 to 100 nM.

As to `CNc1nc(Nc2ccc(-c3cc(Cl)ncn3)c(OC)c2)nc2c1CCC2c1ccccc1` (stereo not drawn) [Example 277, N2-(4-(6-chloropyrimidin-4-yl)-3-methoxyphenyl)-N4-methyl-7-phenyl-6,7-dihydro-5H-cyclopenta[d]pyrimidine-2,4-diamine], the concentration for half-maximal inhibition (IC50) is more than 1000 nM.

Turning to `CNc1nc(Nc2ccc(-n3cnc(Cl)c3)c(OC)c2)nc2c1CN(C)CC2c1ccc(F)cc1` (stereo not drawn) [Example 163A, N2-(4-(4-chloro-1H-imidazol-1-yl)-3-methoxyphenyl)-8-(4-fluorophenyl)-N4,6-dimethyl-5,6,7,8-tetrahydropyrido[4,3-d]pyrimidine-2,4-diamine], the IC50 lay within 1.5 to 9.9 nM.

As to `COc1cc(Nc2nc3c(c(N4CC(C)(C#N)C4)n2)CCC3c2ccc(F)cc2)ccc1-n1cnc(Cl)c1` (stereo not drawn) [Example 186, 1-(2-(4-(4-chloro-1H-imidazol-1-yl)-3-methoxyphenylamino)-7-(4-fluorophenyl)-6,7-dihydro-5H-cyclopenta[d]pyrimidin-4-yl)-3-methylazetidine-3-carbonitrile], the half-inhibitory concentration (IC50) was in the range of 10 to 100 nM.

Turning to `COc1cc(Nc2nc3c(c(N(C)C)n2)CN(S(C)(=O)=O)CC3c2ccccc2)ccc1-n1cnc(Cl)c1` (stereo not drawn) [Example 147, N2-(4-(4-chloro-1H-imidazol-1-yl)-3-methoxyphenyl)-N4,N4-dimethyl-6-(methylsulfonyl)-8-phenyl-5,6,7,8-tetrahydropyrido[4,3-d]pyrimidine-2,4-diamine], the IC50 lay in the range of 10 to 100 nM.

For `CCNc1nc(Nc2ccc(-n3cnc(Cl)c3)c(OC)c2)nc2c1COC2c1ccc(F)cc1` (stereo not drawn) [Example 75, N^2-(4-(4-chloro-1H-imidazol-1-yl)-3-methoxyphenyl)-N^4-ethyl-7-(4-fluorophenyl)-5,7-dihydrofuro[3,4-d]pyrimidine-2,4-diamine], the IC50 lay within 10 to 100 nM.

The experiment is the same for the next values; noted with them: 19 h, H4 APP751 SWE clone 8.20 cells, 19 h incubation; read-out: Activity Rating (Aβ42 cellular IC50), numeric value.
With `CNC1CN(c2nc(Nc3ccc(-n4cnc(Cl)c4)c(OC)c3)nc3c2CCC3c2ccc(F)cc2)C1` (stereo not drawn) [Example 33, N-(4-(4-chloro-1H-imidazol-1-yl)-3-methoxyphenyl)-7-(4-fluorophenyl)-4-(3-(methylamino)azetidin-1-yl)-6,7-dihydro-5H-cyclopenta[d]pyrimidin-2-amine], the half-maximal inhibitory concentration (IC50) amounted to 100 nM.

As to `COCC(Nc1nc(Nc2ccc(-n3cnc(Cl)c3)c(OC)c2)nc2c1CCC2c1ccc(F)cc1)C1CC1` (stereo not drawn) [Example 45B, N2-(4-(4-chloro-1H-imidazol-1-yl)-3-methoxyphenyl)-N4-(1-cyclopropyl-2-methoxyethyl)-7-(4-fluorophenyl)-6,7-dihydro-5H-cyclopenta[d]pyrimidine-2,4-diamine], the concentration for half-maximal inhibition (IC50) was found to be 2.5 nM.

With `CNc1nc(Nc2ccc(C#N)c(C#N)c2)nc2c1CCC2c1ccccc1` (stereo not drawn) [Example 237, 4-(4-(methylamino)-7-phenyl-6,7-dihydro-5H-cyclopenta[d]pyrimidin-2-ylamino)phthalonitrile], the 50% inhibitory concentration (IC50) stood at 29 nM.

Regarding `CNc1nc(Nc2ccc(-n3ncnc3C)c(F)c2)nc2c1COCC2c1ccc(Br)cc1` (stereo not drawn) [Example 73, 8-(4-bromophenyl)-N^2-(3-fluoro-4-(5-methyl-1H-1,2,4-triazol-1-yl)phenyl)-N^4-methyl-7,8-dihydro-5H-pyrano[4,3-d]pyrimidine-2,4-diamine], the 50% inhibitory concentration (IC50) was found to be 3.8 nM.

Regarding `CNc1nc(Nc2ccc(Cl)c(OC)c2)nc2c1CCC2c1ccccc1` (stereo not drawn) [Example 220, N2-(4-chloro-3-methoxyphenyl)-N4-methyl-7-phenyl-6,7-dihydro-5H-cyclopenta[d]pyrimidine-2,4-diamine], the IC50 came to 550 nM.

`CCNc1nc(Nc2ccc(-n3cnc(Cl)c3)c(OC)c2)nc2c1CN(C(C)=O)CC2c1ccccc1` (stereo not drawn) [Example 137, 1-(2-(4-(4-chloro-1H-imidazol-1-yl)-3-methoxyphenylamino)-4-(ethylamino)-8-phenyl-7,8-dihydropyrido[4,3-d]pyrimidin-6(5H)-yl)ethanone]: the half-maximal inhibitory concentration (IC50) was determined as 11 nM.

On to `COc1cc(Nc2nc3c(c(N(C)C)n2)CCC3c2ccc(OC(F)(F)F)cc2)ccc1-n1cnc(Cl)c1` (single isomer, unassigned) [Example 100A, N^2-(4-(4-chloro-1H-imidazol-1-yl)-3-methoxyphenyl)-N^4,N^4-dimethyl-7-(4-(trifluoromethoxy)phenyl)-6,7-dihydro-5H-cyclopenta[d]pyrimidine-2,4-diamine], for which the IC50 worked out at 4.7 nM.

For the molecule `COc1cc(Nc2nc3c(c(N4CC(F)(F)C4)n2)CCC3c2cc(F)c(F)c(F)c2)ccc1-n1cnc(Cl)c1` (stereo not drawn) [Example 108, N-(4-(4-Chloro-1H-imidazol-1-yl)-3-methoxyphenyl)-4-(3,3-difluoroazetidin-1-yl)-7-(3,4,5-trifluorophenyl)-6,7-dihydro-5H-cyclopenta[d]pyrimidin-2-amine], the IC50 was 20 nM.

Take `CNc1nc(Nc2ccc(-n3cnc(Cl)c3)c(OC)c2)nc2c1CCCC2c1ccccc1` (stereo not drawn) [Example 203, N2-(4-(4-chloro-1H-imidazol-1-yl)-3-methoxyphenyl)-N4-methyl-8-phenyl-5,6,7,8-tetrahydroquinazoline-2,4-diamine]: the IC50 is 19 nM.

Staying with this experiment, now noted: H4 APP751 SWE clone 8.20 cells, 19 h incubation; class symbols; read-out: Activity Rating (Aβ42 cellular IC50).
In the case of `[2H]C([2H])([2H])Nc1nc(Nc2ccc(-n3cnc(Cl)c3)c(OC)c2)nc2c1CCC2c1ccccc1` (single isomer, unassigned) [Example 176B, N^2-(4-(4-Chloro-1H-imidazol-1-yl)-3-methoxyphenyl)-N^4-trideuteromethyl-7-phenyl-6,7-dihydro-5H-cyclopenta[d]pyrimidine-2,4-diamine], the IC50 lay within 1.5 to 9.9 nM.

Take `CNc1nc(Nc2ccc(-n3cnc(C)n3)c(OC)c2)nc2c1COCC2c1ccc(F)cc1` (stereo not drawn) [Example 54A, 8-(4-fluorophenyl)-N2-(3-methoxy-4-(3-methyl-1H-1,2,4-triazol-1-yl)phenyl)-N4-methyl-7,8-dihydro-5H-pyrano[4,3-d]pyrimidine-2,4-diamine]: the IC50 fell in the range of 10 to 100 nM.

Regarding `COc1cc(Nc2nc3c(c(N4CC(F)(F)C4)n2)COCC3c2ccc(F)c(F)c2)ccc1-n1cnc(Cl)c1` (stereo not drawn) [Example 114A, N-(4-(4-chloro-1H-imidazol-1-yl)-3-methoxyphenyl)-4-(3,3-difluoroazetidin-1-yl)-8-(3,4-difluorophenyl)-7,8-dihydro-5H-pyrano[4,3-d]pyrimidin-2-amine], the 50% inhibitory concentration (IC50) lay in the range of 10 to 100 nM.

With `COc1cc(Nc2nc3c(c(N4CC(C)(O)C4)n2)CCC3c2ccc(F)cc2)ccc1-n1cnc(Cl)c1` (stereo not drawn) [Example 189, 1-(2-(4-(4-chloro-1H-imidazol-1-yl)-3-methoxyphenylamino)-7-(4-fluorophenyl)-6,7-dihydro-5H-cyclopenta[d]pyrimidin-4-yl)-3-methylazetidin-3-ol], the 50% inhibitory concentration (IC50) was in the range of 1.5 to 9.9 nM.

With `CCNc1nc(Nc2ccc(-n3ncnc3C)c(F)c2)nc2c1COCC2c1ccc(F)c(F)c1` (stereo not drawn) [Example 116B, 8-(3,4-difluorophenyl)-N4-ethyl-N2-(3-fluoro-4-(5-methyl-1H-1,2,4-triazol-1-yl)phenyl)-7,8-dihydro-5H-pyrano[4,3-d]pyrimidine-2,4-diamine], the IC50 lay in the range of 100 to 1000 nM.

Regarding `CNc1nc(Nc2ccc(-n3cnc(C)n3)c(OC)c2)nc2c1CN(C)CC2c1ccc(F)cc1` (single isomer, unassigned) [Example 198A, 8-(4-fluorophenyl)-N2-(3-methoxy-4-(3-methyl-1H-1,2,4-triazol-1-yl)phenyl)-N4,6-dimethyl-5,6,7,8-tetrahydropyrido[4,3-d]pyrimidine-2,4-diamine], the IC50 lay in the range of 100 to 1000 nM.

`CNc1nc(Nc2ccc(-n3ncnc3C)c(F)c2)nc2c1COCC2c1ccc(Cl)cc1` (single isomer, unassigned) [Example 69B, 8-(4-chlorophenyl)-N^2-(3-fluoro-4-(5-methyl-1H-1,2,4-triazol-1-yl)phenyl)-N^4-methyl-7,8-dihydro-5H-pyrano[4,3-d]pyrimidine-2,4-diamine]: the half-inhibitory concentration (IC50) was in the range of 100 to 1000 nM.

Regarding `COc1cc(Nc2nc3c(c(N4CC(F)(F)C4)n2)COCC3c2ccc(F)c(F)c2)ccc1-n1cnc(Cl)c1` (stereo not drawn) [Example 114B, N-(4-(4-chloro-1H-imidazol-1-yl)-3-methoxyphenyl)-4-(3,3-difluoroazetidin-1-yl)-8-(3,4-difluorophenyl)-7,8-dihydro-5H-pyrano[4,3-d]pyrimidin-2-amine], the IC50 fell in the range of 100 to 1000 nM.
